The test system of one assay is skin. Briefly: Cooling effect of the formulation examples as perceived by the test persons. The format is in vivo, human. The source says: Provided the corresponding formulations also contained trans-4-tert. butylcyclohexanol, the cooling effect was even further enhanced compared to formulations without this compound.
The test system of assay [1] is skin (both cheeks) of test persons. Briefly: In-vivo half-side cheek test of cooling intensity of O/W cream samples (20 panellists, scale 1-10, 30 minutes). The following applies: FIG. 1. More on the design: species or system human. Here is the method: The aim of the human in vivo studies was to test the effect of the cooling mixture according to the invention in O/W formulations with regard to their cooling intensity. What was to be examined here was whether the cooling effect/cooling intensity of 5-methyl-2-(propane-2-yl)cyclohexyl-N-ethyloxamate will be enhanced in the combination of active substances according to the invention. Each individual test was carried out using 20 panellists under standardized conditions in a test institute. To this end, each test person spread two defined quantities of cream samples onto both cheeks at the same time. […] Upon application of the samples, the test persons evaluated the cooling intensities on a scale of 1-10 within a period of 30 minutes (1=weak; 10=strong). The studies were carried out as double blind studies, therefore the test institute received the formulations in an encoded form. In order to ensure test standardization, the following conditions were selected: • Controlled ventilation and temperature conditions in the room of the test persons • Use of a standardized test protocol • Detailed explanation of the test protocol • Samples were given to the test persons in uniform, clear containers • Samples were labeled with a three-digit code • A sample amount of 0.3 g of cream was applied onto each cheek • Samples were covered with a lid in order to avoid drying out of the samples • Test persons were instructed not to use any makeup on the day of the test and not to use any cosmetic products at least two hours before the test • The test persons evaluated the cooling effect of the two products on a scale of 1-10 (1=weak, 10=strong) at 32 identical points in time
The data obtained during the studies was examined with regard to any significant differences between the two samples. To this end, the data was initially examined for standard normal distribution. Provided the data met the criteria of a standard normal distribution, a pairwise t test was carried out. […] Where no normal distribution of the values was found, significance was determined via a non-parametric Wilcoxon. […]

The results in this text go back to patent US9029415B2, “Cooling mixtures with an enhanced cooling effect of 5-methyl-2-(propane-2-yl)cyclohexyl-N-ethyloxamate” (Symrise AG, priority 2010, dated 2015).

Each structure is given as a SMILES string.

For `CCCCC(O)CO` (centres unmarked) [1,2-hexanediol], the “enhancement of cooling effect when 1,2-pentanediol is replaced” value in the assay with skin (1,2-pentanediol in the formulations replaced with 1,2-hexanediol at a ratio of 5:3) is listed as “comparable effects are achieved”.
On to `CCCCCCCCC(O)CO` (centres unmarked) [1,2-decanediol], for which the “enhancement of cooling effect when 1,2-pentanediol is replaced” value in the assay with skin (1,2-pentanediol replaced with 1,2-decanediol in an amount of one fifth of the pentanediol) is “applies analogously”.
Consider `CCNC(=O)C(=O)O[C@@H]1C[C@H](C)CC[C@H]1C(C)C` [MEO, (1R,2S,5R)-5-methyl-2-(propane-2-yl)cyclohexyl N ethyl oxamate], for which the “cooling effect (cooling intensity, scale 1-10)” value in assay [1] (O/W emulsion with 1.0 % MEO, 0.3 g cream per cheek, 20 panellists) was “marked cooling effect”. The “onset of the cooling effect” value in assay [1] (after application of the formulation onto the cheek) was “immediately upon application”. Besides, the “duration of the cooling effect” value in assay [1] (evaluation period 30 minutes) is “more than 30 minutes”.
